This is an account of results in article PMC6751662, “Pharmacological and functional similarities of the human neuropeptide Y system in C. elegans challenges phylogenetic views on the FLP/NPR system” (Cell Communication and Signaling : CCS, 2019).

What all share (format): cell-based, C. elegans
The target in test [1] is T1, NPR-3 (Caenorhabditis elegans, UniProt P90745).
T1 construct: expressed in transfected cells; host or cells: HEK293
T1 sequence (P90745 1-376): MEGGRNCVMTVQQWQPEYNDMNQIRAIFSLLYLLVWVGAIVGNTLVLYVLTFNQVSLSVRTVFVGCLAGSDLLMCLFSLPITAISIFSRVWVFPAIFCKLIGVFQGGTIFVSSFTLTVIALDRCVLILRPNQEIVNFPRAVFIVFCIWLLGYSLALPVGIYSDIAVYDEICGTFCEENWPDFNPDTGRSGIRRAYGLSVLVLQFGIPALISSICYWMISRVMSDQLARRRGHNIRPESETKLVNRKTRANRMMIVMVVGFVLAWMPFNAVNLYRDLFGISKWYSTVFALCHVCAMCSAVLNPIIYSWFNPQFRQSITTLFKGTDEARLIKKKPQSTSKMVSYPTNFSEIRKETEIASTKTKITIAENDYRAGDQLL
Put plainly: cAMP reporter gene assay, Gs (no forskolin), NPR-3. Particulars: no forskolin, 4 h, transiently transfected HEK293, CRE-luciferase reporter, mean of >=3 independent experiments. As for the experimental part:
(§1) Activation of Gs and Gi/o was assessed with a cAMP reporter gene assay. HEK293 cells grown to 70–80% confluency in 6-well plates were transiently co-transfected with vectors encoding the receptor and the cAMP reporter gene plasmid pGL4.29 [luc2P/CRE/Hygro] (Promega; 4 μg total, 1:1 ratio) using Metafectene Pro (3 μl/μg DNA; Biontex) following the manufacturer’s instructions. 16 h post transfection, the cells were seeded into white 384-well plates at a density of 20,000 cells/well. On the next day, the medium was removed and the cells were stimulated with 20 μl of peptide solution (or forskolin as positive control) in serum-free DMEM for 4 h. For measuring Gi/o activity, the peptide solutions additionally contained 1 μM forskolin to elevate cellular cAMP levels. After incubation, the luciferase substrate OneGlo in lysis buffer (Promega) was added and the luminescence was measured in a microplate reader Tecan Spark (Tecan). Data were analyzed with GraphPad Prism 5.03 and are shown as fold of basal or fold of forskolin in case of Gαi/o activity.
(§2) For in vitro activation, data is presented as mean ± SEM of at least three independent experiments conducted in technical triplicate. […] For the C. elegans NPRs, we considered the strongest response elicited by any of the peptides downstream of a particular receptor as the receptor’s maximal signal. This may or may not be the biological maximum that can be reached by the ‘true’ endogenous agonist. For the human receptors, the response to the established endogenous agonist reflected the maximal signal.
A general note: In a reporter assay the amount or activity of a reporter protein is the signal.

Test [2] has as its target T2, NPR-4b (Caenorhabditis elegans, UniProt A0A078BTK0).
T2 sequence (A0A078BTK0 1-376): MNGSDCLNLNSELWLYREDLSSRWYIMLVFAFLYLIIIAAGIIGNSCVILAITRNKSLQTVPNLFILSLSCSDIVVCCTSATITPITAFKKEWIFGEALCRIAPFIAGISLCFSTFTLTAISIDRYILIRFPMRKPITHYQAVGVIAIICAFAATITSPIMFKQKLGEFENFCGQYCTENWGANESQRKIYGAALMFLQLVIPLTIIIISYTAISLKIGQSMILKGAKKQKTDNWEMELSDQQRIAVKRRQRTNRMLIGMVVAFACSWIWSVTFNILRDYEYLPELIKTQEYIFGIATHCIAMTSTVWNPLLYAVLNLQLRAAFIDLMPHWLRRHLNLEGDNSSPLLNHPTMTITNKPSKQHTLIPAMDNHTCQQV
Put plainly: IP accumulation assay, endogenous Gαq + mock, NPR-4b. Particulars: 1 h, HBSS + 20 mM LiCl, HEK293 receptor + empty vector, HTRF IP-One, mean of >=3 independent experiments. As for the experimental part: (§3) For measuring IP accumulation, HEK293 cells grown to 70–80% confluency in 6-well plates were transiently co-transfected using Metafectene Pro (2.5 μl/μg DNA; Biontex) with plasmids containing receptor and/or mock (empty pcDNA3.1) (for endogenous Gq-coupling) using 4 μg total DNA in a ratio of 3:1 following the manufacturer’s instructions. For testing Gα16- and GαΔ6qi4myr-coupling, plasmids encoding the corresponding Gα protein were co-transfected instead of mock. Gα16 is naturally promiscuous and stimulates the phospholipase C (PLC) pathway leading to IP production, while the exchange of the C-terminal four amino acids of Gαq for the corresponding residues of Gαi1 in the chimeric GαΔ6qi4myr confers the ability to couple to Gi/o protein-preferring receptors but still stimulate PLC, thus specifically redirecting downstream cellular signaling. 16 h post transfection, the cells were seeded into white 384-well plates at a density of 20,000 cells/well. Media was removed 24 h later and the cells were incubated with the indicated concentration of peptides for 1 h in HBSS + 20 mM LiCl. IP accumulation was measured with the HTRF-based IP-One Gq kit (Cisbio) on a microplate reader (Tecan Spark).
(§4) For in vitro activation, data is presented as mean ± SEM of at least three independent experiments conducted in technical triplicate. […]

Test [3] deals with T2, NPR-4b. Put plainly: cAMP reporter gene assay, Gs (no forskolin), NPR-4b. Particulars: no forskolin, 4 h, transiently transfected HEK293, CRE-luciferase reporter, mean of >=3 independent experiments. As for the experimental part:
as §1, §2

Test [4] has as its system NPR-6. Put plainly: IP accumulation assay, endogenous Gαq + mock, NPR-6. Particulars: 1 h, HBSS + 20 mM LiCl, HEK293 receptor + empty vector, HTRF IP-One, mean of >=3 independent experiments. As for the experimental part:
as §3, §4
In general terms: TR-FRET usually uses a lanthanide donor and a delayed reading to cut background.

In test [5] the test system is NPR-6. The experiment in a line: cAMP reporter gene assay, Gs (no forskolin), NPR-6. Particulars: no forskolin, 4 h, transiently transfected HEK293, CRE-luciferase reporter, mean of >=3 independent experiments. As for the experimental part: as §1, §2
Test [6] concerns the target T3, NPR-5b (Caenorhabditis elegans, UniProt Q6F3C9).
T3 sequence (Q6F3C9 1-433): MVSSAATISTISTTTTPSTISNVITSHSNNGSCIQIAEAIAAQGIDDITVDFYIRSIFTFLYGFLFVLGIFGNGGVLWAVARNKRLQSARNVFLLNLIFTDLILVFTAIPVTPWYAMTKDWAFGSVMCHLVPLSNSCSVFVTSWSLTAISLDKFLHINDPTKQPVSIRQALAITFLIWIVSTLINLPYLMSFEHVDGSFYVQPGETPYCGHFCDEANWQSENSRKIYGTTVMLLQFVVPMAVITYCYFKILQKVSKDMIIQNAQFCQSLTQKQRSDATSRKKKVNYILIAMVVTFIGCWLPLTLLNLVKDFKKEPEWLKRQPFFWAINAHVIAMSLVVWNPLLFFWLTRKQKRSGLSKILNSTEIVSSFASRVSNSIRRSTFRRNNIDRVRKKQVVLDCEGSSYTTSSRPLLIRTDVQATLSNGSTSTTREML
Put plainly: cAMP reporter gene assay, Gs (no forskolin), NPR-5b. Particulars: no forskolin, 4 h, transiently transfected HEK293, CRE-luciferase reporter, mean of >=3 independent experiments. As for the experimental part:
as §1, §2

The mark [7] stands for this setting: 0.1 nM peptide (so in the source).

Regarding “APKPKFIRF-NH2 [FLP-5-1, C. elegans FMRFamide-like peptide, C-terminally amidated, synthesized by SPPS]”, the “cAMP assay Gs, NPR-3” value was 0.86 x-fold of basal in test [1] (0.1 µM peptide) and 0.85 x-fold of basal in test [1] (10 µM peptide). The “IP assay endog. Gαq + mock, NPR-4b” value in test [2] (setting [7]) is on record as 0.98 x-fold of basal; in test [2] (10 µM peptide), 0.99 x-fold of basal. Further, the figures for the “cAMP assay Gs, NPR-4b” value in test [3] (0.1 µM peptide) and in test [3] (10 µM peptide) were 0.89 x-fold of basal and 0.92 x-fold of basal, respectively. Further, the “IP assay endog. Gαq + mock, NPR-6” value in test [4] (setting [7]) is recorded as 0.92 x-fold of basal; in test [4] (10 µM peptide), 0.95 x-fold of basal. Moreover, the entries for the “cAMP assay Gs, NPR-6” value in test [5] (0.1 µM peptide) and in test [5] (10 µM peptide) were 0.68 x-fold of basal and 0.57 x-fold of basal, respectively. Further, the “cAMP assay Gs, NPR-5b” value in test [6] (0.1 µM peptide) and in test [6] (10 µM peptide) was 0.68 x-fold of basal in each case.
